How the values were obtained:
[1] = system: H. pylori clinical isolates and reference strain ATCC 43504; assay: Disk diffusion test, anti-Helicobacter pylori activity; type: cell-based; parameters: key to Inhibition Zone: *R: Resistant
[2] = system: absolute ethanol-induced ulcer in Wistar rats; assay: Anti-ulcerogenic activity, absolute ethanol-induced ulcer model; type: in vivo; conditions: oral 100 mg/kg; for % Protection: % protection of control ulcer, 100 mg/kg
Description: Evaluation of the anti-ulcerogenic activity was carried out using an absolute ethanol-induced ulcer model according to published methods. About 30 Wistar rats were divided into 5 groups, each of 6 rats. Group 1 received the vehicle and served as control group. Group 2 received ranitidine (100 mg/kg) and served as a standard group. […] Rats of all groups were fasted for 24 hours, and then all medications were administered orally. […] The stomachs were rapidly removed, opened along their greater curvature, and gently rinsed under running tap water. The number of lesions in the glandular part of the stomach was measured under an illuminated magnifying microscope (10×). Long lesions were counted and their lengths were measured. Petechial lesions were counted, and then each five petechial lesions were taken as 1 mm of ulcer. The mucosal lesions were quantified by the scoring system (0-5), where 0=no damage; 1=Local edema and inflammation without ulcers; 2=One ulcer without inflammation; 3=one to two ulcers with inflammation & lesion diameter <1 cm; 4=More than two ulcers with lesion diameter 1-2 cm; 5=Sever ulceration with lesion diameter >2 cm. To calculate the ulcer index (mm), the sum of the total length of long ulcers and petechial lesions in each group of rats was divided by its number. The curative ratio was determined according to the formula: % Protection of control ulcer=Control UI−Test UI/Control UI×100.

CC1(C)S[C@@H]2[C@H](NC(=O)[C@H](N)c3ccc(O)cc3)C(=O)N2[C@H]1C(=O)O [Amoxicillin]
Inhibition Zone ([1]; H. pylori strain ATCC 43504, disk 30 μg): 30 mm
Inhibition Zone ([1]; H. pylori strain KA01, disk 30 μg): R*
Inhibition Zone ([1]; H. pylori strain KA01, disk 30 μg, listed as amoxicillin): resistant
Inhibition Zone ([1]; H. pylori strain KA02, disk 30 μg): 20 mm
Inhibition Zone ([1]; H. pylori strain KA03, disk 30 μg): 21 mm
Inhibition Zone ([1]; H. pylori strain KA04, disk 30 μg): 20 mm
Inhibition Zone ([1]; H. pylori strain KA05, disk 30 μg): 22 mm
Inhibition Zone ([1]; H. pylori strain KA07, disk 30 μg): 25 mm
Inhibition Zone ([1]; H. pylori strain KAO6, disk 30 μg): 23 mm
Susceptibility of H. pylori isolates by disc diffusion ([1]; all isolates with the exception of isolate KA01): sensitive

CC[C@H]1OC(=O)[C@H](C)[C@@H](O[C@H]2C[C@@](C)(OC)[C@@H](O)[C@H](C)O2)[C@H](C)[C@@H](O[C@@H]2O[C@H](C)C[C@H](N(C)C)[C@H]2O)[C@](C)(O)C[C@@H](C)C(=O)[C@H](C)[C@@H](O)[C@]1(C)O [Erythromycin]
Inhibition Zone ([1]; H. pylori strain ATCC 43504, disk 15 μg): 28 mm
Inhibition Zone ([1]; H. pylori strain KA01, disk 15 μg): 19 mm
Inhibition Zone ([1]; H. pylori strain KA02, disk 15 μg): 23 mm
Inhibition Zone ([1]; H. pylori strain KA03, disk 15 μg): 22 mm
Inhibition Zone ([1]; H. pylori strain KA04, disk 15 μg): 22 mm
Inhibition Zone ([1]; H. pylori strain KA05, disk 15 μg): 20 mm
Inhibition Zone ([1]; H. pylori strain KA07, disk 15 μg): 23 mm
Inhibition Zone ([1]; H. pylori strain KAO6, disk 15 μg): 24 mm
Susceptibility of H. pylori isolates by disc diffusion ([1]; all of the isolates of H. pylori): sensitive

CNC(=C[N+](=O)[O-])NCCSCc1ccc(CN(C)C)o1 [Ranitidine]
% Protection [2]: 46.2%
% Protection ([2]; listed as ranitidine): about 46.2%
Score ([2]; mucosal lesion scoring system 0-5): 2.2

— patent US9192639B1, “Convolvulus extract for treatment of peptic ulcer and helicobacter pylori infection” (KING SAUD UNIVERSITY, priority 2014, dated 2015)
